In publication PMC8909834, “An Orally Bioavailable and Highly Efficacious Inhibitor of CDK9/FLT3 for the Treatment of Acute Myeloid Leukemia” (Cancers, 2022):
Read-outs that look alike come from different tables or passages of the source.

Experiments:
Pharmacokinetics in mice = format: in vivo, BALB/c hairy mice; conditions: both sexes, BALB/c hairy, mouse; for AUC / Cmax / Tmax / half-life: ± standard error of the estimate; for half-life: read-out: t½ (converted); for bioavailability: po, read-out: F (oral bioavailability)
Protocol: Pharmacokinetics. The pharmacokinetics of CDDD11-8 was determined in mice after single oral (PO) and intravenous (IV) doses. CDDD11-8 was administered at a dose of 10 or 100 mg/kg PO or 2 mg/kg IV to BALB/c hairy mice (n = 10 per route of administration; both male and female). The IV dose consisted of CDDD11-8 dissolved in 10/90 N-methyl-2-pyrrolidone (NMP)/acetate buffer (pH 4.5), while the PO doses of CDDD11-8 were dissolved in acetate buffer at pH 4.74. At nominal times, up to three blood samples were collected from individual mice at non-consecutive times from the right cheek, left cheek, and heart of an individual mouse. The concentrations in these samples were measured by validated LC-MS/MS methods (limit of quantification = 5 ng/mL). Pharmacokinetic parameters were estimated after fitting compartmental models to the concentration–time data (Phoenix, Certara, NJ, USA). Specifically, a one-compartmental kinetic model with first-order input was used after an oral dose, and a two-compartmental model was fitted to the IV data. Acceptability of models was evaluated from values for Akaike Information Criterion (AIC), Schwarz’s Bayesian Criterion (SIB), and % Coefficient of Variance (CV) for parameters, where lower values were indicative of a better fit. Other considerations were variances in the concentrations of quality control samples and visual inspection of model fit. Oral bioavailability (F) was calculated from values of AUC after PO and IV administration after correcting for the differences in doses.

Caco-2 permeability = format: in vitro ADME; conditions: human
Caco-2 monolayer = test: Caco-2 permeability; format: in vitro ADME; conditions: Papp B-A/Papp A-B
[1] = Drug concentration in plasma and tumor 4 h post final dose; format: in vivo, MV4-11 tumor-bearing mice; conditions: BALB/c nude (nu/nu), mouse, oral; for concentration at 4 h: 4 h post final dose
Protocol: To investigate the effect of CDDD11-8 on its targets in vivo, MV4-11 tumor-bearing mice (n = 3) were treated with the vehicle, CDDD11-8 (75 and 125 mg/kg), orally for 5 days. Four hours post final dose, tumor samples were collected and lysates prepared for western blot analysis (Figure 4C, Supplementary Figure S19). […] These were accompanied by changes in the levels of the proteins involved in cancer cell survival.
We also determined the concentration of CDDD11-8 in the plasma and tumor (Figure 4D, Supplementary Table S5). […] The tumor concentration from the 75 mg/kg dose was 2.5-times the plasma concentration. However, the plasma and tumor concentrations from 125 mg/kg were similar.

Cc1cnc(N[C@H]2CC[C@H](N)CC2)nc1-c1cnc2ccc(-c3ccccc3)cn12 [CDDD11-8]
concentration at 0.1 h (Pharmacokinetics in mice; plasma, PO 100 mg/kg, 0.10 h, read-out: Plasma Conc.): 810 ng/mL
concentration at 0.38 h (Pharmacokinetics in mice; plasma, PO 100 mg/kg, 0.38 h, read-out: Plasma Conc.): 925 ng/mL
concentration at 0.73 h (Pharmacokinetics in mice; plasma, PO 100 mg/kg, 0.73 h, read-out: Plasma Conc.): 2660 ng/mL
concentration at 1.2 h (Pharmacokinetics in mice; plasma, PO 100 mg/kg, 1.2 h, read-out: Plasma Conc.): 1810 ng/mL
concentration at 1.9 h (Pharmacokinetics in mice; plasma, PO 100 mg/kg, 1.9 h, read-out: Plasma Conc.): 3010 ng/mL
concentration at 2.6 h (Pharmacokinetics in mice; plasma, PO 100 mg/kg, 2.6 h, read-out: Plasma Conc.): 3680 ng/mL
concentration at 2.9 h (Pharmacokinetics in mice; plasma, PO 100 mg/kg, 2.9 h, read-out: Plasma Conc.): 2480 ng/mL
concentration at 4.9 h (Pharmacokinetics in mice; plasma, PO 100 mg/kg, 4.9 h, read-out: Plasma Conc.): 4830 ng/mL
concentration at 6.1 h (Pharmacokinetics in mice; plasma, PO 100 mg/kg, 6.1 h, read-out: Plasma Conc.): 2160 ng/mL
concentration at 7 h (Pharmacokinetics in mice; plasma, PO 100 mg/kg, 7.0 h, read-out: Plasma Conc.): 881 ng/mL
concentration at 7.8 h (Pharmacokinetics in mice; plasma, PO 100 mg/kg, 7.8 h, read-out: Plasma Conc.): 717 ng/mL
concentration at 8.3 h (Pharmacokinetics in mice; plasma, PO 100 mg/kg, 8.3 h, read-out: Plasma Conc.): 1200 ng/mL
concentration at 8.9 h (Pharmacokinetics in mice; plasma, PO 100 mg/kg, 8.9 h, read-out: Plasma Conc.): 854 ng/mL
concentration at 9.6 h (Pharmacokinetics in mice; plasma, PO 100 mg/kg, 9.6 h, read-out: Plasma Conc.): 248 ng/mL
concentration at 16 h (Pharmacokinetics in mice; plasma, PO 100 mg/kg, 16.0 h, read-out: Plasma Conc.): 77 ng/mL
concentration at 22.1 h (Pharmacokinetics in mice; plasma, PO 100 mg/kg, 22.1 h, read-out: Plasma Conc.): 153 ng/mL
concentration at 24.6 h (Pharmacokinetics in mice; plasma, PO 100 mg/kg, 24.6 h, read-out: Plasma Conc.): 74 ng/mL
concentration at 29 h (Pharmacokinetics in mice; plasma, PO 100 mg/kg, 29.0 h, read-out: Plasma Conc.): 62 ng/mL
concentration at 41.2 h (Pharmacokinetics in mice; plasma, PO 100 mg/kg, 41.2 h, read-out: Plasma Conc.): 0 ng/mL
Vd (Pharmacokinetics in mice; plasma, intravenous, 2 mg/kg, read-out: volume of distribution): 1.71 L/kg
AUC (Pharmacokinetics in mice; plasma, oral 10 mg/kg): 1360 ± 249 ng·h/mL
Cmax (Pharmacokinetics in mice; plasma, oral 10 mg/kg): 496 ± 108 ng/mL
Tmax (Pharmacokinetics in mice; plasma, oral 10 mg/kg): 1 ± 0.1 h
half-life (Pharmacokinetics in mice; plasma, oral 10 mg/kg): 40.8 ± 18 min
AUC (Pharmacokinetics in mice; plasma, oral 100 mg/kg): 25400 ng·h/mL
Cmax (Pharmacokinetics in mice; plasma, oral 100 mg/kg): 3600 ± 822 ng/mL
Tmax (Pharmacokinetics in mice; plasma, oral 100 mg/kg): 2 ± 0.6 h
half-life (Pharmacokinetics in mice; plasma, oral 100 mg/kg): 408 ± 222 min
bioavailability (Pharmacokinetics in mice; plasma, 10 mg/kg, oral 10 mg/kg): ~30%
bioavailability (Pharmacokinetics in mice; plasma, 100 mg/kg, oral 100 mg/kg): 56%
clearance (Pharmacokinetics in mice; whole blood, intravenous, 2 mg/kg, plasma clearance divided by B/P, read-out: blood clearance (converted)): 51.7 mL/min/kg
efflux ratio (Caco-2 permeability; Caco-2, Papp B-A/Papp A-B): 4.9
Papp A→B (Caco-2 permeability; Caco-2, A-B): 6.06 ± 0.49 ×10⁻⁶ cm/s
Papp B→A (Caco-2 permeability; Caco-2, B-A): 29.5 ± 8.47 ×10⁻⁶ cm/s
Caco-2 Permeability Efflux ratio (Caco-2 monolayer): 4.87
concentration at 4 h ([1]; plasma, 75 mg/kg, 75 mg/kg orally 5 days, mouse 1, read-out: Plasma concentration): 490 ng/mL
concentration at 4 h ([1]; plasma, 75 mg/kg, 75 mg/kg orally 5 days, mouse 2, read-out: Plasma concentration): 441 ng/mL
concentration at 4 h ([1]; plasma, 75 mg/kg, 75 mg/kg orally 5 days, mouse 3, read-out: Plasma concentration): 1090 ng/mL
concentration at 4 h ([1]; plasma, 125 mg/kg, 125 mg/kg orally 5 days, mouse 1, read-out: Plasma concentration): 1440 ng/mL
concentration at 4 h ([1]; plasma, 125 mg/kg, 125 mg/kg orally 5 days, mouse 2, read-out: Plasma concentration): 2850 ng/mL
concentration at 4 h ([1]; plasma, 125 mg/kg, 125 mg/kg orally 5 days, mouse 3, read-out: Plasma concentration): 1800 ng/mL
concentration at 4 h ([1]; tumor, 75 mg/kg, 75 mg/kg orally 5 days, mouse 1, read-out: Tumor concentration): 2140 ng/g
concentration at 4 h ([1]; tumor, 75 mg/kg, 75 mg/kg orally 5 days, mouse 2, read-out: Tumor concentration): 1780 ng/g
concentration at 4 h ([1]; tumor, 75 mg/kg, 75 mg/kg orally 5 days, mouse 3, read-out: Tumor concentration): 1480 ng/g
Kp at 4 h ([1]; tumor, 75 mg/kg, read-out: tumor concentration relative to plasma concentration): 2.5
concentration at 4 h ([1]; tumor, 125 mg/kg, 125 mg/kg orally 5 days, mouse 1, read-out: Tumor concentration): 1680 ng/g
concentration at 4 h ([1]; tumor, 125 mg/kg, 125 mg/kg orally 5 days, mouse 2, read-out: Tumor concentration): 2310 ng/g
concentration at 4 h ([1]; tumor, 125 mg/kg, 125 mg/kg orally 5 days, mouse 3, read-out: Tumor concentration): 1850 ng/g
